{"source": "patent US12419877B2", "about": "“Solid forms of {[5-(3-chlorophenyl)-3-hydroxypyridine-2-carbonyl]amino}acetic acid, compositions, and uses thereof” (Akebia Therapeutics, Inc., priority 2013, dated 2025)", "key": {"[1]": {"assay": "Dynamic Vapour Sorption (DVS) with XRPD re-analysis", "type": "physicochemical", "method": "Dynamic Vapour Sorption (DVS) was performed on a DVS-1 dynamic vapour sorption balance by Surface Measurement Systems. Approximately 10-20 mg of sample was loaded into a wire mesh vapour sorption balance pan of the balance. The sample was subjected to a ramping profile from 20-90% relative humidity (RH) in 10% increments, maintaining the sample at each step until a stable weight had been achieved (99.5% step completion) or 1000 minutes had elapsed. After completion of the sorption cycle, the sample was dried using the same procedure, but all the way down to 0% RH and finally taken back to the starting point of 20% RH. The weight change during the sorption/desorption cycles were plotted, allowing for the hygroscopic nature of the sample to be determined. Following the DVS analysis, the solid was re-analysed by XRPD in order to determine whether there had been any change in physical form."}, "[2]": {"assay": "Solid form stability in slurries", "type": "physicochemical", "conditions": "slurries at high temperature"}}}
{"smiles": "O=C(O)CNC(=O)c1ncc(-c2cccc(Cl)c2)cc1O", "note": "[Form B, {[5-(3-chlorophenyl)-3-hydroxypyridine-2-carbonyl]amino}acetic acid]", "values": [{"measurement": "water sorption at 90% RH", "setting": "[1]; DVS, 90% RH", "value": 0.33, "unit": "%"}, {"measurement": "XRPD analysis following DVS (change in physical form)", "setting": "[1]; after DVS sorption/desorption cycle", "value": "no change in form"}, {"measurement": "hygroscopicity (DVS)", "setting": "[1]; judged from water sorption at 90% RH", "value": "non-hygroscopic"}, {"measurement": "solid form stability", "setting": "[2]", "value": "metastable and can convert to Form A in slurries at high temperature"}]}
